Columns and labels:
Format in all cases: toxicity, cell-based
Fibroblast = assay: Incucyte cell viability with human fibroblast; details: 10 µM, compound concentration 10 uM
HEK-293T = assay: Incucyte cell viability with HEK293T; details: human, 10 µM, compound concentration 10 uM
U2OS = assay: Incucyte cell viability with U2OS; details: human, 10 µM, compound concentration 10 uM
Also: unitless GR value; below 1 slowed growth and below 0 cell loss.

| Compound | Growth Rate (Fibroblast; 6 h, replicate number 1) | Growth Rate (Fibroblast; 6 h, replicate number 2) | Growth Rate (Fibroblast; 12 h, replicate number 2) | Growth Rate (Fibroblast; 18 h, replicate number 1) | Growth Rate (Fibroblast; 18 h, replicate number 2) | Growth Rate (Fibroblast; 24 h, replicate number 2) | Growth Rate (HEK-293T; 6 h, replicate number 2) | Growth Rate (HEK-293T; 12 h, replicate number 2) | Growth Rate (U2OS; 6 h, replicate number 1) | Growth Rate (U2OS; 6 h, replicate number 2) | Growth Rate (U2OS; 12 h, replicate number 1) | Growth Rate (U2OS; 12 h, replicate number 2) | Growth Rate (U2OS; 18 h, replicate number 1) | Growth Rate (U2OS; 18 h, replicate number 2) | Growth Rate (U2OS; 24 h, replicate number 1) | Growth Rate (U2OS; 0 h, replicate number 1) | Growth Rate (U2OS; 24 h, replicate number 2) | Growth Rate (Fibroblast; 0 h, replicate number 1) | Growth Rate (Fibroblast; 24 h, replicate number 1) | Growth Rate (Fibroblast; 12 h, replicate number 1) | further results |
| --- | --- | --- | --- | --- | --- | --- | --- | --- | --- | --- | --- | --- | --- | --- | --- | --- | --- | --- | --- | --- | --- |
| COc1ccccc1C(=O)Nc1cccc(NC(=O)c2cccc(C)c2)c1 | 0.45 | -1 | 0.94 | 0.17 | 0.98 | 0.85 | 0.58 | 0.91 | 0.17 | 0.68 | 0.78 | 0.75 | 0.83 | 0.84 | 0.88 |  |  |  |  |  |  |
| CCOC(=O)N1CCC(c2cc(O)n3nc(C)c(-c4ccc(F)cc4)c3n2)CC1 |  | -0.67 | 0.8 | 0.13 | 0.85 | 0.92 | 0.98 |  | 0.54 | 0.99 | 0.93 |  | 0.98 |  |  | 0.61 |  |  |  |  | Growth Rate (HEK-293T; 12 h, replicate number 1): 0.62; Growth Rate (HEK-293T; 18 h, replicate number 1): 0.78; Growth Rate (HEK-293T; 24 h, replicate number 1): 0.88; Growth Rate (U2OS; 0 h, replicate number 2): 0.63 |
| Cc1ccc(CNc2ncnc3ccc(-c4ccc(CO)o4)cc23)o1 | -1 |  |  |  |  |  | 0.11 | 0.71 |  |  |  |  |  | 0.94 |  | -0.83 | 0.86 |  |  |  | Growth Rate (Fibroblast; 0 h, replicate number 2): 0.71; Growth Rate (HEK-293T; 18 h, replicate number 2): 0.69; Growth Rate (HEK-293T; 24 h, replicate number 2): 0.79 |
| Cc1cc(C)c(NC(=O)C2CC3CCC2C3)c(C)c1 (stereo not drawn) | -0.94 | -0.52 | 0.78 |  | 0.75 | 0.97 | 0.65 |  | 0.68 |  | 0.47 | 0.78 | 0.75 |  | 0.83 |  |  |  |  |  |  |
| CN(C)CCOc1ccc(/C(=C(/CCCO)c2ccccc2)c2ccc(O)cc2)cc1 |  |  |  |  |  |  | 0.71 |  | 0.76 |  |  |  | 1 |  |  |  |  | 0.55 | 0.02 |  | Growth Rate (Fibroblast; 0 h, replicate number 2): -0.4; Growth Rate (U2OS; 0 h, replicate number 2): -0.67 |
| COc1ccc(CC(=O)NC(N/C(=N/C#N)Nc2cccc3ncccc23)C(C)(C)C)cc1OC (stereo not drawn) | -0.31 | -1 | 0.57 | 0.6 | 0.81 | 0.59 | 0.89 |  | 0.08 | 0.31 | 0.96 | 0.85 | 0.98 | 0.78 |  | 0.85 | 0.82 |  |  | -1 | Growth Rate (HEK-293T; 18 h, replicate number 2): 0.99 |
| CC(C)n1nc(-c2cnc(N)c(OC(F)(F)F)c2)cc1[C@H]1[C@@H]2CN(C3COC3)C[C@@H]21 |  |  | 0.78 | 0.08 | 0.91 | 0.95 | 0.62 |  | 0.76 |  | 0.92 |  |  |  | 0.84 | 0.6 |  | 0.52 |  | -0.97 |  |
| O=C(Nc1cc(C(F)(F)F)ccc1N1CCCCC1)c1ccncc1 |  | 0.12 | 0.6 |  | 0.93 | 0.9 | 0.49 |  |  | 0.58 |  |  |  |  |  | 0.2 |  |  |  |  | Growth Rate (Fibroblast; 0 h, replicate number 2): -0.43 |
| C[C@@H](c1ccc(F)cc1)n1nnc2cnc3ccc(-c4ccc5ocnc5c4)cc3c21 | -0.77 | 0.8 |  | 0.35 |  |  | 0.07 | 0.99 |  |  |  |  | 0.87 |  | 0.82 | -0.74 |  | 0.85 | 1 | -0.93 | Growth Rate (Fibroblast; 0 h, replicate number 2): -0.11; Growth Rate (U2OS; 0 h, replicate number 2): 0.17 |
| CCCN1C(=O)c2ccc(Cl)cc2Nc2ncccc21 | 0.56 | -0.63 | 0.55 | 0.68 | 0.62 |  |  | 0.86 | 0.65 |  |  | 0.68 |  | 0.91 | 0.98 | 0.38 |  | -1 | 0.63 | 0.9 |  |
| CP(C)(=O)c1ccc(CNC(=O)C2CCN(S(=O)(=O)c3cc(Cl)cc(Cl)c3)CC2)cc1 |  |  |  |  |  |  |  |  | 0.37 |  | 0.74 | 0.85 | 0.74 | 0.9 | 0.87 | 0.11 | 0.89 |  |  |  | Growth Rate (Fibroblast; 0 h, replicate number 2): -0.94; Growth Rate (HEK-293T; 12 h, replicate number 1): 0.93; Growth Rate (HEK-293T; 18 h, replicate number 1): 0.9; Growth Rate (HEK-293T; 24 h, replicate number 1): 0.89 |
| Cc1ccc(-c2cn3nc(C(=O)NC4(c5ccc(F)cc5)CN(C)C4)c(C(C)C)c3c(=O)[nH]2)cc1C |  | 0.39 | 0.19 | 0.16 | 0.26 | 0.27 |  |  | 0.98 |  | 0.9 | 0.86 | 0.59 | 0.74 | 0.31 |  | 0.61 | -1 | 0.16 | 0.22 | Growth Rate (HEK-293T; 12 h, replicate number 1): 0.66; Growth Rate (HEK-293T; 18 h, replicate number 1): 0.19; Growth Rate (HEK-293T; 18 h, replicate number 2): 0.21; Growth Rate (HEK-293T; 24 h, replicate number 1): 0.07; Growth Rate (HEK-293T; 24 h, replicate number 2): 0.09 |
| COc1ccccc1[C@@H]1CNCCC12CCN(C(=O)[C@](OC)(c1ccccc1)C(F)(F)F)CC2 | 0.9 |  | 0.7 | 0.54 | 0.97 | 0.68 |  |  | 0.37 |  | 0.85 |  | 0.73 | 0.99 | 0.53 | -0.8 | 0.82 | -1 | 0.63 | 0.93 | Growth Rate (HEK-293T; 12 h, replicate number 1): 0.43; Growth Rate (HEK-293T; 18 h, replicate number 1): 0.28; Growth Rate (HEK-293T; 18 h, replicate number 2): 0.64; Growth Rate (HEK-293T; 24 h, replicate number 1): 0.22; Growth Rate (HEK-293T; 24 h, replicate number 2): 0.34; Growth Rate (U2OS; 0 h, replicate number 2): 0.59 |
| COc1cc(CN(CCN)C(=O)N[C@@H](C)c2ccccc2)ccc1OCc1ccccc1.Cl | 0.29 |  | 0.41 | 0.87 | 0.71 | 0.83 |  | 0.77 | 0.64 | 0.82 | 0.69 |  | 0.98 | 0.92 | 0.79 | -0.64 | 1 | -1 | 0.72 | 0.94 | Growth Rate (HEK-293T; 18 h, replicate number 2): 0.81; Growth Rate (HEK-293T; 24 h, replicate number 2): 0.74; Growth Rate (U2OS; 0 h, replicate number 2): -0.26 |

Source: ChEMBL document CHEMBL5303304, “EUbOPEN Chemogenomics Library - IncuCyte” (2023)
